Assay results published in BindingDB's records for doi:10.1016/j.bmcl.2009.02.015 (Pfizer, 2009).

Target: Cyclin-dependent kinase 2 (Homo sapiens) (UniProt P24941)
Test: Inhibition of CDK2

Question: For `COc1ccc2sc3c(c2c1)SCCNC3=O`, which IC50 is on record?
Answer: The IC50 was 150 nM.

Question: How did the IC50 turn out when `CC(C)COc1ccc2sc3c(c2c1)NC[C@@H](C)NC3=O` [(R)-3-Isobutoxy-7-methyl-5,6,7,8-tetrahydro-10-thia-5,8-diaza-benzo[a]azulen-9-one] was run?
Answer: Its IC50 is 11 nM.

Question: With `COc1ccc2sc3c(c2c1)NC[C@@H](CN(C)Cc1ccccc1)NC3=O` [(S)-7-[(Benzyl-methyl-amino)-methyl]-3-methoxy-5,6,7,8-tetrahydro-10-thia-5,8-diaza-benzo[a]azulen-9-one] as the molecule, how does the IC50 read?
Answer: Its IC50 is 3170 nM.

Question: `COc1ccc2sc3c(c2c1)NC[C@@H](CNCc1ccccc1)NC3=O` [(R)-7-(Benzylamino-methyl)-3-methoxy-5,6,7,8-tetrahydro-10-thia-5,8-diaza-benzo[a]azulen-9-one] was tested. Which IC50 did it give?
Answer: Its IC50 is 2700 nM.

Question: Which IC50 does the source give for `CCNC[C@@H]1CNc2c(sc3ccc(OC)cc23)C(=O)N1` [(R)-7-Ethylaminomethyl-3-methoxy-5,6,7,8-tetrahydro-10-thia-5,8-diaza-benzo[a]azulen-9-one] here?
Answer: Its IC50 is 3100 nM.

Question: How did the IC50 turn out when `COC(=O)COc1ccc2sc3c(c2c1)NC[C@@H](C)NC3=O` [((R)-7-Methyl-9-oxo-6,7,8,9-tetrahydro-5H-10-thia-5,8-diaza-benzo[a]azulen-3-yloxy)-acetic acid methyl ester] was run?
Answer: The IC50 was 3090 nM.

Question: With `COc1ccc2sc3c(c2c1)CCCNC3=O` [3-Methoxy-5,6,7,8-tetrahydro-10-thia-8-aza-benzo[a]azulen-9-one] as the molecule, how does the IC50 read?
Answer: Its IC50 is 360 nM.

Question: `C[C@@H]1CNc2c(sc3ccc(O)cc23)C(=O)N1` [(R)-3-Hydroxy-7-methyl-5,6,7,8-tetrahydro-10-thia-5,8-diaza-benzo[a]azulen-9-one] was tested. Which IC50 did it give?
Answer: Its IC50 is 26 nM.

Question: How did the IC50 turn out when `COc1cccc(COc2ccc3sc4c(c3c2)NC[C@@H](C)NC4=O)c1` [(R)-3-(3-Methoxy-benzyloxy)-7-methyl-5,6,7,8-tetrahydro-10-thia-5,8-diaza-benzo[a]azulen-9-one] was run?
Answer: The IC50 was 64 nM.

Question: Which IC50 does the source give for `COc1ccc2sc3c(c2c1)NCCNC3=O` [3-Methoxy-5,6,7,8-tetrahydro-10-thia-5,8-diaza-benzo[a]azulen-9-one] here?
Answer: The IC50 was 160 nM.

Question: `CCCNC[C@@H]1CNc2c(sc3ccc(OC)cc23)C(=O)N1` [(R)-3-Methoxy-7-propylaminomethyl-5,6,7,8-tetrahydro-10-thia-5,8-diaza-benzo[a]azulen-9-one] was tested. Which IC50 did it give?
Answer: Its IC50 is 2600 nM.

Question: With `C[C@@H]1CNc2c(sc3ccc(OCC4CC4)cc23)C(=O)N1` [(R)-3-Cyclopropylmethoxy-7-methyl-5,6,7,8-tetrahydro-10-thia-5,8-diaza-benzo[a]azulen-9-one] as the molecule, how does the IC50 read?
Answer: The IC50 was 52 nM.

Question: How did the IC50 turn out when `COc1ccc2sc3c(c2c1)NC[C@@H](CO)NC3=O` [(S)-7-Hydroxymethyl-3-methoxy-5,6,7,8-tetrahydro-10-thia-5,8-diaza-benzo[a]azulen-9-one] was run?
Answer: Its IC50 is 25 nM.

Question: With `COCCOc1ccc2sc3c(c2c1)NC[C@@H](C)NC3=O` [(R)-3-(2-Methoxy-ethoxy)-7-methyl-5,6,7,8-tetrahydro-10-thia-5,8-diaza-benzo[a]azulen-9-one] as the molecule, how does the IC50 read?
Answer: The IC50 was 81 nM.

Question: For `COc1ccc2sc3c(c2c1)NC[C@@H](CN)NC3=O` [(R)-7-Aminomethyl-3-methoxy-5,6,7,8-tetrahydro-10-thia-5,8-diaza-benzo[a]azulen-9-one], which IC50 is on record?
Answer: The IC50 was 146 nM.
